# Reference: patent US6686355B2, “Biphenyl sulfonamides useful as matrix metalloproteinase inhibitors” (Warner-Lambert Company, priority 2001, dated 2004)
# Experiments:
# Assay type in all cases: biochemical
# [1] = target: MMP-3CD (catalytic domain of stromelysin-1) (Homo sapiens, UniProt P08254); test: Thiopeptolide hydrolysis assay, MMP-3CD; conditions: thiopeptolide substrate, MES pH 6.0
# Text: (§1) The assays measure the amount by which a test compound reduces the hydrolysis of a thiopeptolide substrate catalyzed by a matrix metalloproteinase enzyme. Such assays are described in detail by Ye et al., in Biochemistry, 1992;31(45):11231-11235, which is incorporated herein by reference.
# (§2) Thiopeptolide substrates show virtually no decomposition or hydrolysis at or below neutral pH in the absence of a matrix metalloproteinase enzyme. A typical thiopeptolide substrate commonly utilized for assays is Ac-Pro-Leu-Gly-thioester-Leu-Leu-Gly-OEt. A 100 μL assay mixture will contain 50 mM of N-2-hydroxyethylpiperazine-N′-2-ethanesulfonic acid buffer (“HEPES”) at pH 7.0, 10 mM CaCl2, 100 μM thiopeptolide substrate, and 1 mM 5,5″-dithio-bis-(2-nitro-benzoic acid) (DTNB). The thiopeptolide substrate concentration may be varied from, for example, 10 to 800 μM to obtain Km and Kcat values. The change in absorbance at 405 nm is monitored on a Thermo Max microplate reader (Molecular Devices, Menlo Park, Calif.) at room temperature (22° C.). The calculation of the amount of hydrolysis of the thiopeptolide substrate is based on E412=13600 M^−1 cm^−1 for the DTNB-derived product 3-carboxy4-nitrothiophenoxide. Assays are carried out with and without matrix metalloproteinase inhibitor compounds, and the amount of hydrolysis is compared for a determination of inhibitory activity of the test compounds.
# (§3) Several representative compounds have been evaluated for their ability to inhibit various matrix metalloproteinase enzymes. In Table I, MMP-1FL refers to full length interstitial collagenase; MMP-2FL refers to full length Gelatinase A; MMP-3CD refers to the catalytic domain of stromelysin-1; MMP-7FL refers to full length matrilysin; MMP-9FL refers to full length Gelatinase B; MMP-13CD refers to the catalytic domain of collagenase 3; and MMP-14CD refers to the catalytic domain of MMP-14. Test compounds were evaluated at various concentrations in order to determine their respective IC50 values, the micromolar concentration of compound required to cause a 50% inhibition of the catalytic activity of the respective enzyme.
# It should be appreciated that the assay buffer used with MMP-3CD was 50 mM of 2-morpholinoethanesulfonic acid monohydrate (“MES”) at pH 6.0 rather than the HEPES buffer at pH 7.0 described above.
# [2] = target: MMP-14CD (catalytic domain of MMP-14) (Homo sapiens, UniProt P50281); test: Thiopeptolide hydrolysis assay, MMP-14CD; conditions: thiopeptolide substrate, HEPES pH 7.0, 22° C.
# Text: as §1, §2, §3
# [3] = target: MMP-13CD (catalytic domain of collagenase 3) (Homo sapiens, UniProt P45452); test: Thiopeptolide hydrolysis assay, MMP-13CD; conditions: thiopeptolide substrate, HEPES pH 7.0, 22° C.
# Text: as §1, §2, §3
# [4] = target: T1, MMP-2FL (full length Gelatinase A) (Homo sapiens, UniProt P08253); test: Thiopeptolide hydrolysis assay, MMP-2FL; conditions: thiopeptolide substrate, HEPES pH 7.0, 22° C.
# T1 sequence (P08253 110-660): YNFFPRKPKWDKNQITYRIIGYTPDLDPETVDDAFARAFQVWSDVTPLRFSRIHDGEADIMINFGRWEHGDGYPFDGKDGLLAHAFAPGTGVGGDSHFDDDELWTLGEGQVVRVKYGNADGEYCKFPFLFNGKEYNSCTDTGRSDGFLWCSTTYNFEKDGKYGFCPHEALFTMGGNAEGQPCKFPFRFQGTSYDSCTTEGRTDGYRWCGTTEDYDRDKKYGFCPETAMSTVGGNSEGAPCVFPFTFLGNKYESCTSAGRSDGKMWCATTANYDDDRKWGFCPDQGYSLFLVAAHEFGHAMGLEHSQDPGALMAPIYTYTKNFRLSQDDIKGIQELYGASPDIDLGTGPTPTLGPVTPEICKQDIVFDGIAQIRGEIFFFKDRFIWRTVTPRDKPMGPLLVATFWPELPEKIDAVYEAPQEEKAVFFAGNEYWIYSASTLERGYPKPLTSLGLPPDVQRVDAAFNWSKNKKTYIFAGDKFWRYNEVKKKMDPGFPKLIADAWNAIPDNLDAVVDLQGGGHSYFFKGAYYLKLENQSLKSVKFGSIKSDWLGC
# Text: as §1, §2, §3
# MMP-12CD = target: T2, MMP-12CD (Homo sapiens, UniProt P39900); test: Thiopeptolide hydrolysis assay, MMP-12CD; conditions: thiopeptolide substrate, HEPES pH 7.0, 22° C.
# T2 construct: MMP-12CD
# T2 sequence (P39900 106-263 limits assumed): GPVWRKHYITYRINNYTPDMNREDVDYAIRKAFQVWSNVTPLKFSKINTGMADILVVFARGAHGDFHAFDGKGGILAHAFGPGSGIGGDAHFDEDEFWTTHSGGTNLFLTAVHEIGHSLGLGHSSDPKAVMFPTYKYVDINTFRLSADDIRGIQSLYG
# Text: as §1, §2, §3
# [5] = target: MMP-9FL (full length Gelatinase B) (Homo sapiens, UniProt P14780); test: Thiopeptolide hydrolysis assay, MMP-9FL; conditions: thiopeptolide substrate, HEPES pH 7.0, 22° C.
# Chain of MMP-9FL (full length Gelatinase B) (P14780 94-707, species assumed): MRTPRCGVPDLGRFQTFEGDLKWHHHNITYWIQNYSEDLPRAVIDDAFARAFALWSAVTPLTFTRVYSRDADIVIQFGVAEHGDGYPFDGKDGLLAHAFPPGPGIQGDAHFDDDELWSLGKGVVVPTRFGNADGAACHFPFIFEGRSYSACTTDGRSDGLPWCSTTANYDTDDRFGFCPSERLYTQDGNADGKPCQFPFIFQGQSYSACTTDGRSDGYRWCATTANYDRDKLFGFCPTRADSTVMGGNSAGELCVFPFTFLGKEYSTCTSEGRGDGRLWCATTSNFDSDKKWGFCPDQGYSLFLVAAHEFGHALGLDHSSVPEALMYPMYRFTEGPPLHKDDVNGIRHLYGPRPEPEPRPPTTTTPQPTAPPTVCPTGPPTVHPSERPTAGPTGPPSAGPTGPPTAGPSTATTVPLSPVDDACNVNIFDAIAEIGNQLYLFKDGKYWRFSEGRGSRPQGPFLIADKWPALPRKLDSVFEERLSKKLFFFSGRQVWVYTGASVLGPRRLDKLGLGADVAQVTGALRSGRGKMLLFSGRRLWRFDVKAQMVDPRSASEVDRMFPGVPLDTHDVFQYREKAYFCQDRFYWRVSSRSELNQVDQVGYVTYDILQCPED
# Text: as §1, §2, §3
# [6] = target: T3, MMP-1FL (full length interstitial collagenase) (Homo sapiens, UniProt P03956); test: Thiopeptolide hydrolysis assay, MMP-1FL; conditions: thiopeptolide substrate, HEPES pH 7.0, 22° C.
# T3 sequence (P03956 100-469): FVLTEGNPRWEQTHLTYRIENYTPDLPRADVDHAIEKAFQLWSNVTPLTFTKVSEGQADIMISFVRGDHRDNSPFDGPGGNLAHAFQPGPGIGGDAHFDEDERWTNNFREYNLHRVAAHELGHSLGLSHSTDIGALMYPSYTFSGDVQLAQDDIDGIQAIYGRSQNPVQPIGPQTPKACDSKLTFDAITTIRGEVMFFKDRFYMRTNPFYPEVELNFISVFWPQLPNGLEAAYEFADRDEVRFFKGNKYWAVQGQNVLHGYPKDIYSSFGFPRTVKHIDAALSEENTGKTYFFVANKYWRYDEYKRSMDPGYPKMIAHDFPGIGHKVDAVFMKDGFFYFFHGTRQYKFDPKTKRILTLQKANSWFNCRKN
# Text: as §1, §2, §3
# [7] = target: T4, MMP-7FL (full length matrilysin) (Homo sapiens, UniProt P09237); test: Thiopeptolide hydrolysis assay, MMP-7FL; conditions: thiopeptolide substrate, HEPES pH 7.0, 22° C.
# T4 sequence (P09237 95-267): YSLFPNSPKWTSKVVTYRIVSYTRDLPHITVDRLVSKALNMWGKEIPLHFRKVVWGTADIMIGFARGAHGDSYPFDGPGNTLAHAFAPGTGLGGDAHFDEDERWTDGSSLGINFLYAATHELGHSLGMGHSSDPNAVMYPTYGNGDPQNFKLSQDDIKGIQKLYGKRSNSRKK
# Text: as §1, §2, §3
# Chain of MMP-3CD (catalytic domain of stromelysin-1) (P08254 100-272 limits assumed): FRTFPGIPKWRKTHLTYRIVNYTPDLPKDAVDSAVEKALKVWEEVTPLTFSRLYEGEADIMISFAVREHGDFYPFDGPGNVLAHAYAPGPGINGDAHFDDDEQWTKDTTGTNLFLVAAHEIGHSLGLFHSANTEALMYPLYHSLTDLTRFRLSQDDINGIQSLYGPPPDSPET
IC50 [1],IC50 [2],IC50 [3],IC50 [4],IC50 (MMP-12CD),IC50 [5],IC50 [6],IC50 [7],Molecule
0.054 µM,0.615 µM,0.3 µM,0.23 µM,0.0285 µM,6.65 µM,9.7 µM,92.5 µM,"CC1(C)SCCN(S(=O)(=O)c2ccc(-c3ccc(F)c(F)c3)cc2)[C@H]1C(=O)O [Example 41, (S)-4-(3′,4′-Difluoro-biphenyl-4-sulfonyl)-2,2-dimethyl-thiomorpholine-3-carboxylic acid]"
0.0038 µM,0.16 µM,0.0033 µM,0.0023 µM,0.001 µM,0.018 µM,7.95 µM,70 µM,"CCOc1ccc(-c2ccc(S(=O)(=O)N3CCSC(C)(C)[C@@H]3C(=O)O)cc2)cc1 [Example 43, (S)-4-(4′-Ethoxy-biphenyl-4-sulfonyl)-2,2-dimethyl-thiomorpholine-3-carboxylic acid]"
0.0072 µM,0.145 µM,0.0086 µM,0.0043 µM,0.001 µM,0.017 µM,3.15 µM,1.85 µM,"CC1(C)SCCN(S(=O)(=O)c2ccc(-c3ccc(-c4ccccc4)c(F)c3)cc2)[C@H]1C(=O)O [Example 53, (S)-4-(2′-Fluoro-[1,1′;4′,1″]terphenyl-4″-sulfonyl)-2,2-dimethyl-thiomorpholine-3-carboxylic acid]"

Molecule,IC50 [1],IC50 [2],IC50 [3],IC50 [4],IC50 (MMP-12CD),IC50 [5],IC50 [6],IC50 [7]
"(S)-2,2-Dimethyl-4-(4-methylsulfanyl-biphenyl-4-sulfonyl)-thiomorpholine-3-carboxylic acid [Example 37]",0.00475 µM,0.036 µM,0.00305 µM,0.0025 µM,0.001 µM,0.069 µM,2.03 µM,6.87 µM
